logP data for 20 compounds are collected here from the SangsterLogP compilation.

In turn, `CCC(=O)OCCOc1ccc(-c2ccncc2)c(C)n1` yielded a logP of 3.21. The result for `CCC(=O)N1CCN(c2ccc(-c3ccncc3)cn2)CC1` reads 2.39; that for `CC(=O)OCCNc1ccc(-c2ccncc2)cn1`, 2; that for `CC(=O)OCCCNc1ccc(-c2ccncc2)cn1`, 2.42. The result for `CC(=O)N1CCN(c2ccc(-c3ccncc3)cn2)CC1` reads 2.04; that for `CCC(=O)OCCNc1ccc(-c2ccncc2)cn1`, 2.47; that for `CC(=O)OCCN(CCOC(C)=O)c1ncc(-c2ccncc2)cc1C#N`, 2.44. The same measure for `CC(=O)OCC(COc1ncc(-c2ccncc2)cc1C#N)OC(C)=O` (stereo not given): 2.51; for `CC(=O)OCCOc1ccc(-c2ccccc2)c(C)n1`: 4; for `CC(=O)COC(C)CNc1ccc(-c2ccccc2)c(C)n1` (stereo not given): 3.74. As to `CCC(=O)OCCCNc1ccc(-c2ccncc2)cn1`, the logP turned out to be 2.87. The result for `CC(=O)OCCCNc1ccc(-c2ccncc2)c(C)n1` reads 2.91; that for `CC(=O)OCCCOc1ccc(-c2ccncc2)cn1`, 2.48; that for `O=C(OCCNc1ccc(-c2ccncc2)cn1)c1ccccc1`, 3.84. The same measure for `CC(=O)OCCNc1ccc(-c2ccncc2)c(C)n1`: 2.59. In turn, `CC(=O)N1CCN(c2ccc(-c3ccccc3)c(C)n2)CC1` displayed a logP of 4.08. In the case of `CC(=O)OCCOc1ccc(-c2ccncc2)cn1`, the logP stood at 1.92. The result for `CCC(=O)OCCCOc1ccc(-c2ccncc2)cn1` reads 3.07. As to `O=C(OCCNc1ccc(-c2ccncc2)cn1)c1cccnc1`, the logP stood at 2.58. The result for `O=C(OCCCNc1ccc(-c2ccncc2)cn1)c1ccccc1` reads 4.06.
